In article PMC11593696, “Discovery of Potent Benzothiazole Inhibitors of Oxidoreductase NQO2, a Target for Inflammation and Cancer” (International Journal of Molecular Sciences, 2024):
Like-named read-outs stand apart in the source and are kept apart here.

What was measured:
recombinant human NQO2 = molecular target: T1, recombinant human NQO2 (Homo sapiens, UniProt P16083); test: NQO2 enzyme inhibition assay (DCPIP substrate, NRH or EPR co-substrate); format: biochemical; conditions: for reduction in potency relative to compound 40: removal of the 4-OMe or the 5-OMe from 40
T1 sequence (P16083 1-231): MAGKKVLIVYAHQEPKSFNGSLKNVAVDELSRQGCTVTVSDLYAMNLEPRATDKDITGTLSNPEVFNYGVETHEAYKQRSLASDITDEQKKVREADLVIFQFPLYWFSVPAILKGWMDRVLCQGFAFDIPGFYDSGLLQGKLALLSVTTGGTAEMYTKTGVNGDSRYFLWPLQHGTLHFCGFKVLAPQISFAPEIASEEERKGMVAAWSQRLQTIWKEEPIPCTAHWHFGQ
Procedure: In this assay, dichlorophenolindophenol (DCPIP) was used as a substrate for NQO2. NRH (SI or EP0152R) was used as the co-substrate for the enzyme.
The NQO2 enzyme assay was carried out using a […] GO spectrophotometer by measuring the absorbance of DCPIP at 600 nm. NRH [31] or EPR were used as co-substrates. The experiment was performed using a 96-well plate with a […] final volume using phosphate buffer (50 mM, pH 7.4). The final concentrations were DCPIP 40 µM and NRH or EPR 200 µM. The final enzyme concentration was 100 ng. The assay was performed at 37 °C and initiated through the addition of NQO2. The initial rates of the enzyme reactions were calculated from the curve by taking the initial slopes of the reactions using the formula (ΔAb/ΔTime). The assay of inhibitors was carried out using the same assay conditions. […] Each experiment was performed in triplicate. Rates were converted to the percentage of enzyme activity, and IC50 values were calculated using GraphPad Prism 7.03 software using the non-linear regression function. IC50 values were determined as a 50% decrease in NQO2 activity.

[1] = inhibition of NQO2, DCPIP 40 µM, NRH or EPR 200 µM, phosphate buffer pH 7.4, 37 °C, triplicate, read-out: IC50 (µM) ± SD
[2] = DCPIP substrate, NRH co-substrate, read-out: IC50 for inhibition of NQO2

Structure (SMILES) | IC50 (recombinant human NQO2; [1]) [µM] | melting point [°C] | IC50 (recombinant human NQO2; [2]) [µM] | reduction in potency relative to compound 40 (recombinant human NQO2) [fold] | inhibition of NQO2 enzymatic activity, in words (recombinant human NQO2)
Oc1ccc2nc(-c3cc(O)c(O)c(O)c3)sc2c1 [Compound 52, 6-Hydroxy-2-(3,4,5-trihydroxyphenyl)benzo[d]thiazole] | 0.2 ± 0.01 | 240 to 242 |  |  | 
COc1ccc(OC)c(-c2nc3ccc(Br)cc3s2)c1 [Compound 25, 6-Bromo-2-(2,5-dimethoxyphenyl)benzo[d]thiazole] | 6.71 ± 0.02 | 135 to 137 |  |  | 
COc1cc(OC)cc(-c2nc3ccc(OC)cc3s2)c1 [Compound 3, 2-(3,5-Dimethoxyphenyl)-6-methoxybenzo[d]thiazole] | 0.108 ± 0.012 | 121 to 123 | 0.108 | 2 | 
COc1ccc(-c2nc3ccc(C#N)cc3s2)c(OC)c1 [Compound 20, 2-(2,4-Dimethoxyphenyl)benzo[d]thiazole-6-carbonitrile] | > 100 | 235 to 237 |  |  | 
COc1cc(OC)cc(-c2nc3ccc(Cl)cc3s2)c1 [Compound 6, 6-Chloro-2-(3,5-dimethoxyphenyl)benzo[d]thiazole] | 82.93 ± 0.04 | 150 to 151 |  |  | 
COc1cc(-c2nc3ccc([N+](=O)[O-])cc3s2)cc(OC)c1OC [Compound 47, 6-Nitro-2-(3,4,5-trimethoxyphenyl)benzo[d]thiazole] | 0.754 ± 0.008 | 200 to 201 |  |  | 
COc1ccc(-c2nc3ccc(C#N)cc3s2)cc1OC [Compound 36, 2-(3,4-Dimethoxyphenyl)benzo[d]thiazole-6-carbonitrile] | > 100 |  |  |  | 
COc1cc(OC)cc(-c2nc3ccc(Br)cc3s2)c1 [Compound 4, 6-Bromo-2-(3,5-dimethoxyphenyl)benzo[d]thiazole] | > 100 | 164 to 165 |  |  | 
COc1cc(OC)cc(-c2nc3ccc(C(F)(F)F)cc3s2)c1 [Compound 5, 2-(3,5-Dimethoxyphenyl)-6-(trifluoromethyl)benzo[d]thiazole] | 0.123 ± 0.029 |  | 0.123 |  | 
COc1cc(OC)cc(-c2nc3ccc(I)cc3s2)c1 [Compound 9, 2-(3,5-Dimethoxyphenyl)-6-iodobenzo[d]thiazole] | 2.46 ± 0.01 | 150 to 152 |  |  | 
COc1ccc(OC)c(-c2nc3ccc(C(F)(F)F)cc3s2)c1 [Compound 26, 2-(2,5-Dimethoxyphenyl)-6-(trifluoromethyl)benzo[d]thiazole] | 2.77 ± 0.01 |  | 2.77 |  | 
COc1ccc(-c2nc3ccc(Cl)cc3s2)c(OC)c1 [Compound 19, 6-Chloro-2-(2,4-dimethoxyphenyl)benzo[d]thiazole] | 33.55 ± 0.02 | 170 to 171 | 33.5 |  | 
COc1ccc(OC)c(-c2nc3ccc(OC)cc3s2)c1 [Compound 24, 2-(2,5-Dimethoxyphenyl)-6-methoxybenzo[d]thiazole] | 0.846 ± 0.02 |  | 0.846 |  | 
COc1cc(OC)cc(-c2nc3ccc(F)cc3s2)c1 [Compound 8, 2-(3,5-Dimethoxyphenyl)-6-fluorobenzo[d]thiazole] | > 100 | 138 to 140 |  |  | 
COc1ccc(-c2nc3ccc(F)cc3s2)c(OC)c1 [Compound 21, 2-(2,4-Dimethoxyphenyl)-6-fluorobenzo[d]thiazole] | 3.51 ± 0.08 | 157 to 158 |  |  | 
COc1ccc(OC)c(-c2nc3ccc(C#N)cc3s2)c1 [Compound 28, 2-(2,5-Dimethoxyphenyl)benzo[d]thiazole-6-carbonitrile] | > 100 | 182 to 184 |  |  | 
COc1ccc(OC)c(-c2nc3ccc(Cl)cc3s2)c1 [Compound 27, 6-Chloro-2-(2,5-dimethoxyphenyl)benzo[d]thiazole] | 1.18 ± 0.002 | 220 to 222 | 1.18 |  | 
COc1ccc2nc(-c3cc(F)cc(F)c3)sc2c1 [Compound 57, 2-(3,5-Difluorophenyl)-6-methoxybenzo[d]thiazole] | 11.78 ± 0.02 |  | 12 |  | 
COc1cc(-c2nc3ccc(NC(C)=O)cc3s2)cc(OC)c1OC [Compound 49, N-(2-(3,4,5-Trimethoxyphenyl)benzo[d]thiazol-6-yl)acetamide] | 0.031 ± 0.008 | 208 to 209 | 0.031 |  | 
COc1cc(-c2nc3ccc(C#N)cc3s2)cc(OC)c1OC [Compound 44, 2-(3,4,5-Trimethoxyphenyl)benzo[d]thiazole-6-carbonitrile] | 13.28 ± 0.02 | 228 to 230 | 13.3 |  | 

Structure (SMILES) | IC50 (recombinant human NQO2; [1]) [µM] | melting point [°C] | IC50 (recombinant human NQO2; [2]) [µM] | reduction in potency relative to compound 40 (recombinant human NQO2) [fold] | inhibition of NQO2 enzymatic activity, in words (recombinant human NQO2)
COc1cc(OC)cc(-c2nc3ccc([N+](=O)[O-])cc3s2)c1 [Compound 10, 2-(3,5-Dimethoxyphenyl)-6-nitrobenzo[d]thiazole] | 93.44 ± 0.02 | 199 to 200 |  |  | 
COc1ccc(-c2nc3ccc(Br)cc3s2)c(OC)c1 [Compound 17, 6-Bromo-2-(2,4-dimethoxyphenyl)benzo[d]thiazole] | 56.9 ± 0.02 | 148 to 149 | 56.9 |  | 
COc1ccc(-c2nc3ccc(OC)cc3s2)c(OC)c1 [Compound 16, 2-(2,4-Dimethoxyphenyl)-6-methoxybenzo[d]thiazole] | 5.86 ± 0.07 | 150 to 151 |  |  | 
COc1ccc(-c2nc3ccc(F)cc3s2)cc1OC [Compound 37, 2-(3,4-Dimethoxyphenyl)-6-fluorobenzo[d]thiazole] | 5.93 ± 0.05 |  | 5.93 |  | 
COc1cc(-c2nc3ccc(C(F)(F)F)cc3s2)cc(OC)c1OC [Compound 42, 6-(Trifluoromethyl)-2-(3,4,5-trimethoxyphenyl)benzo[d]thiazole] | 18.36 ± 0.03 |  | 18.4 |  | 
COc1cc(-c2nc3ccc(F)cc3s2)cc(OC)c1OC [Compound 45, 6-Fluoro-2-(3,4,5-trimethoxyphenyl)benzo[d]thiazole] | 0.717 ± 0.015 | 156 to 158 |  |  | 
Oc1cc(O)cc(-c2nc3ccc(O)cc3s2)c1 [Compound 15, 6-Hydroxy-2-(3,5-dihydroxyphenyl)benzo[d]thiazole] | 0.025 ± 0.003 |  | 0.025 |  | 
COc1ccc2nc(-c3cc(OC)c(OC)c(OC)c3)sc2c1 [Compound 40, 6-Methoxy-2-(3,4,5-trimethoxyphenyl)benzo[d]thiazole] | 0.051 ± 0.02 |  | 0.051 |  | 
COc1cccc(-c2nc3ccc(F)cc3s2)c1 [Compound 53, 6-Fluoro-2-(3-methoxyphenyl)benzo[d]thiazole] | 0.908 ± 0.02 | 103 to 105 | 0.908 |  | 
COc1ccc(-c2nc3ccc(C(F)(F)F)cc3s2)cc1OC [Compound 34, 2-(3,4-Dimethoxyphenyl)-6-(trifluoromethyl)benzo[d]thiazole] | > 100 |  |  |  | 
COc1cc(-c2nc3ccc(I)cc3s2)cc(OC)c1OC [Compound 46, 6-Iodo-2-(3,4,5-trimethoxyphenyl)benzo[d]thiazole] | 0.106 ± 0.004 |  |  |  | 
COc1cc(OC)cc(-c2nc3ccc(N)cc3s2)c1 [Compound 11, 2-(3,5-Dimethoxyphenyl)benzo[d]thiazol-6-amine] | 0.863 ± 0.07 |  | 0.863 |  | 
COc1ccc(OC)c(-c2nc3ccc(F)cc3s2)c1 [Compound 29, 2-(2,5-Dimethoxyphenyl)-6-fluorobenzo[d]thiazole] | 2.06 ± 0.01 | 105 to 107 | 2.06 |  | 
COc1cc(OC)cc(-c2nc3ccc(NC(=O)c4ccccc4)cc3s2)c1 [Compound 13, N-(2-(3,5-Dimethoxyphenyl)benzo[d]thiazol-6-yl)benzamide] | 8.44 ± 0.03 | 138 to 140 |  |  | further loss of activity
COc1ccc(-c2nc3ccc(C(F)(F)F)cc3s2)c(OC)c1 [Compound 18, 2-(2,4-Dimethoxyphenyl)-6-(trifluoromethyl)benzo[d]thiazole] | 4.52 ± 0.04 |  |  |  | 
COc1ccc(-c2nc3ccc(Cl)cc3s2)cc1OC [Compound 35, 6-Chloro-2-(3,4-dimethoxyphenyl)benzo[d]thiazole] | 91.67 ± 0.08 |  | 91.7 |  | 
COc1ccc2nc(-c3ccc(OC)c(OC)c3)sc2c1 [Compound 32, 2-(3,4-Dimethoxyphenyl)-6-methoxybenzo[d]thiazole] | 1.27 ± 0.03 |  | 1.27 | 20 | 
Fc1cc(F)cc(-c2nc3ccc(F)cc3s2)c1 [Compound 58, 2-(3,5-Difluorophenyl)-6-fluorobenzo[d]thiazole] | > 100 |  |  |  | loss of inhibition of NQO2 activity
COc1ccc(-c2nc3ccc(I)cc3s2)cc1OC [Compound 38, 2-(3,4-Dimethoxyphenyl)-6-iodobenzo[d]thiazole] | 22.94 ± 0.02 |  | 22.9 |  | 
Fc1ccc(-c2nc3ccc(F)cc3s2)cc1 [Compound 56, 6-Fluoro-2-(4-fluorophenyl)benzo[d]thiazole] | > 100 |  | > 100 |  | 
